# Experimental data: patent US5036097A, “Phenylbutyl nitrone compositions and methods for prevention of gastric ulceration” (Oklahoma Medical Research Foundation, priority 1990, dated 1991)
# How the values were obtained:
# [1] = test system: piroxicam-induced gastric ulcers; test: suppression of piroxicam-induced gastric ulcers by interventions (PBN, free radical scavengers, ascorbate); assay type: in vivo, rat (male Sprague-Dawley)
# Experimental: FIG. 2 is a graph of % control ulceration from piroxicam versus the % ulceration in the presence of free radical scavengers. The […] scavenger dimethylthiourea (DMTU, 500 mg/kg i.p.) was given 24 hours and 1 hour before piroxicam. […] The antioxidant butylated hydroxytoluene (BHT, 25 mg/kg/day i.p. in corn oil) was given for three days before and again 1 hour before piroxicam. The % control ulceration is determined by averaging the ratios of cm^2 ulceration in control stomachs from rats given piroxicam alone, and multiplying×100. +P< 0.01 compared to piroxicam alone.
# (§1) Male Sprague-Dawley rats (Charles River, Wilmington, Mass.) weighing 300-325 g were housed individually in wire bottomed cages to prevent ingestion of hair and feces. Animals were maintained without food for 48 hours and without water for 24 hours prior to each experiment. Piroxicam or aspirin and other NSAIDS were suspended in a vehicle of 1% carboxymethylcellulose, 0.1% Tween 80 and 0.15 M HCl, and administered in a volume of 1 ml on the morning of study by oral gavage using an 18 gauge curved blunt needle (Popper and Sons, New Hyde Park, N.Y.). One ml of vehicle alone was administered for control experiments. HCl was added to the vehicle to insure an acid environment in the stomach in all studies. […] Four hours after the administration of NSAID or vehicle, rats were euthanized with sodium pentobarbital (100 mg/kg IP), and the surface area of ulceration per stomach was quantitated using morphometric techniques. Stomachs were removed, the lumen was exposed by an incision along the radius of greater curvature, and the stomach was washed in phosphate buffered saline. The luminal surface was laid out on a flat surface with gross folds removed by gentle distension. The percentage of surface involved with submucosal hemorrhage was then determined by point counting, as described by Weibel, E. R. Stereological Methods: Practical Methods for Biological Morphometry. Academic Press, New York 1980. This was done by tabulation of the percentage of points over ulcerations using a point counting eyepiece graticle (16×16 points in a square format). At the 12X magnification used on the Wild dissecting microscope (Wild-Heerbrugg, Basel, Switzerland), the graticle covered a 1 cm^2 area of the surface. Four to five non-overlapping sampling sites were taken to fully cover the exposed surface. To determine the total luminal surface area, the outline of the outer boundary of the stomach was traced using a transparent acetate sheet, and the area was determined from planimetry. The surface area of ulcerated regions per stomach was then determined by multiplying the surface density of ulceration regions by the luminal surface area of the stomach.
# Differences in total luminal surface area in cm^2, surface area of ulcerated regions per stomach and biochemical analyses between each treatment intervention and its corresponding untreated control group are compared using the Mann-Whitney U Test, Dixon, W. J., Massey, F. J., Jr. Introduction to statistical methods, 4th edition. (New York: McGraw Hill, 1983). […] In vitro studies are compared using the Student's unpaired T-test, Dixon, W. J., Massey, F. J., Jr. Introduction to statistical methods, 4th edition. (New York: McGraw Hill, 1983). Values are expressed as mean±SEM. Significance is assumed when P<0.05.
# In each experiment, the surface area of gastric ulceration produced by piroxicam in 15 treated rats was compared to that in 15 rats of the same age and size that were fasted simultaneously but which received no intervention. Phenylbutyl nitrone (30 mg/kg) was given orally in water 1 hour before piroxicam and also added to vehicle when piroxicam was administered. When intervention were given with piroxicam, the pH of the final mixture was adjusted if necessary to equal that of piroxicam and vehicle alone.
# [2] = in vivo acute toxicity in rodents; settings: doses up to 3 g/kg in rodents
# Source text: (§2) In vivo toxicity tests have indicated the following. […] An LD50 has yet to be determined because of the lack of toxicity.
# [3] = acute i.v. toxicity in gerbils; assay type: in vivo; settings: 10 to 300 mg/kg i.v., injected within 60 seconds
# Source text: as §2
# [4] = continuous i.v. administration toxicity in gerbils; assay type: in vivo; settings: 50 mg/kg/hr for a total of 48 hr
# Source text: as §2
# [5] = bioavailability / distribution estimate; assay type: in vivo
# [6] = pharmacokinetic studies, plasma half-life; assay type: in vivo; settings: rat; limited pharmacokinetic studies
# Source text: Limited pharmokinetic studies indicate that the plasma half-life in the rat is three to four hours.
# pH stability of PBN = assay type: physicochemical; settings: degrades at pH less than approximately
# [7] = previous studies, standard techniques; cited from earlier work
# gastric ulceration = test: NSAID-induced gastric ulceration in rats (surface area of ulceration); assay type: in vivo, rat (male Sprague-Dawley); settings: aspirin 200, diflunisal 125, naproxen 150, ibuprofen 230 mg/kg; oral gavage, 4 h
# Experimental: as §1, with “Animals were maintained without food for 48 hours and without water for 24 hours prior to each experiment.” left out, “Academic Press, New York 1980.” left out
# Differences in total luminal surface area in cm^2, surface area of ulcerated regions per stomach and biochemical analyses between each treatment intervention and its corresponding untreated control group are compared using the Mann-Whitney U Test, Dixon, W. J., Massey, F. J., Jr. Introduction to statistical methods, 4th edition. […] In vitro studies are compared using the Student's unpaired T-test, Dixon, W. J., Massey, F. J., Jr. Introduction to statistical methods, 4th edition. […] Values are expressed as mean±SEM. Significance is assumed when P<0.05.
# Phenyl N-tert-butyl nitrone is obtained from Aldrich Chemicals, Milwaukee, Wis. All other chemicals and pharmaceuticals are from Sigma Chemical.
# [8] = test system: isolated perfused gastric mucosa; settings: cited from earlier work
compound,measurement,setting,value
"CC(C)(C)[N+]([O-])=Cc1ccccc1 [PBN, N-tert-Butyl-α-phenylnitrone]",ulcerations/unit area,"[1]; piroxicam 23 mg/kg only, or plus PBN 30 mg/kg orally 1 hour before and with piroxicam, p<0.0052",0.077±0.104 ulcerations/unit area
same,"inhibition of piroxicam-induced ulcers, in words","[1]; piroxicam 23 mg/kg, FIG. 2",markedly inhibited
same,"adverse effects, acute doses",[2],no adverse effects
same,"acute toxic effects, i.v.",[3],no acute toxic effects
same,"adverse effect, continuous i.v. administration",[4],no adverse effect
same,Kp,"[5]; brain, read-out: brain level as % of the plasma concentration",0.8
same,"distribution, in words",[5]; in vivo,"widely available throughout the body and is able to cross all of the barriers to distribution, including the blood brain barrier"
same,plasma half-life,[6],three to four
same,pH below which PBN degrades,pH stability of PBN,3 to 4 pH
same,mutagenicity,[7],not mutagenic
O=C1O[C@H]([C@@H](O)CO)C(O)=C1O [ascorbate],increase in ulceration compared to control stomachs treated with piroxicam alone,"[1]; ascorbate plus piroxicam, P<0.001",over 600%
same,ulceration (ascorbate experiment),"[1]; ascorbate-treated stomachs (with piroxicam) vs piroxicam alone, P<0.001",0.194±0.039 cm^2
CC(=O)Oc1ccccc1C(=O)O [aspirin],gastric ulceration caused by NSAID,gastric ulceration,0.972±0.318 cm^2
same,mucosal adenosine triphosphate (ATP) and phosphocreatine (PC),[8],decreases mucosal adenosine triphosphate (ATP) and phosphocreatine (PC)
O=C(O)c1cc(-c2ccc(F)cc2F)ccc1O [diflunisal],gastric ulceration caused by NSAID,gastric ulceration,0.597±0.103 cm^2
CC(C)Cc1ccc(C(C)C(=O)O)cc1 (centres unmarked) [ibuprofen],gastric ulceration caused by NSAID,gastric ulceration,0.644±0.110 cm^2
COc1ccc2cc([C@H](C)C(=O)O)ccc2c1 [naproxen],gastric ulceration caused by NSAID,gastric ulceration,0.370±0.056 cm^2
